Results from article PMC6081437, “The potency of the broad spectrum bacteriocin, bactofencin A, against staphylococci is highly dependent on primary structure, N-terminal charge and disulphide formation” (Scientific Reports, 2018).
Bridge positions count the residues as written; N and C are the ends. Square brackets hold non-standard residues; d marks the D form. Ends that are not written are not given here. Peptide text beside a SMILES is read from it.

System: S. aureus DPC5246
Format: cell-based, Staphylococcus aureus
Conditions: for Activity (Minimum Inhibitory Concentration, MIC): DPC5246, pH 6.8; for fold reduction in activity compared with bactofencin A (wild type): S. aureus DPC5246, agar well diffusion MIC
Protocol: Peptides were resuspended at 1000 µM in 50 mM sodium phosphate buffer pH 6.8 and checked for purity by MALDI-TOF-MS. Peptides were serially diluted 1 in 4 to give a dilution series of 250, 62.50, 15.63, 3.91, 0.98 and 0.24 µM and assayed by the agar well diffusion assay described by Ryan et al.[19]. Briefly, 50 µl aliquots of each peptide concentration were plated on a S. aureus DPC5246 indicator plate and the plate incubated at 37 °C. Peptide activity (Minimum Inhibitory Concentration (MIC)) was taken as the lowest concentration of peptide to give a zone of inhibition. All assays were performed in triplicate. The dilution series values were rounded to the nearest whole number to give 1000, 250, 63, 16, 4, 1 and 0.25 µM and data is colour coded for ease of interpretation.

Compound	Activity (Minimum Inhibitory Concentration, MIC) [µM]	fold reduction in activity compared with bactofencin A (wild type) [fold]
CSCC[C@@H]1NC(=O)CNC(=O)[C@H]([C@@H](C)O)NC(=O)[C@@H]2CCCN2C(=O)[C@H](CCSC)NC(=O)CNC(=O)[C@H](CC(N)=O)NC(=O)[C@H](CC(N)=O)NC(=O)[C@H](Cc2ccc(O)cc2)NC(=O)[C@H](C(C)C)NC(=O)[C@H](CCCNC(=N)N)NC(=O)[C@@H](NC(=O)[C@H](CCCNC(=N)N)NC(=O)[C@H](Cc2c[nH]cn2)NC(=O)[C@H](CCCCN)NC(=O)[C@H](CCCCN)NC(=O)[C@H](CCCNC(=N)N)NC(=O)[C@@H](N)CCCCN)CSSC[C@@H](C(=O)O)NC(=O)[C@H](Cc2c[nH]c3ccccc23)NC(=O)[C@H](CCCNC(=N)N)NC(=O)[C@@H](Cc2ccc(O)cc2)NC1=O [Y19Yd] (H-KRKKHRCRVYNNGMPTGM[dY]RWC-OH; disulfide 7-22; N-terminus assumed)	63	63
CSCC[C@@H]1NC(=O)[C@H](C)NC(=O)[C@H]([C@@H](C)O)NC(=O)[C@@H]2CCCN2C(=O)[C@H](CCSC)NC(=O)CNC(=O)[C@H](CC(N)=O)NC(=O)[C@H](CC(N)=O)NC(=O)[C@H](Cc2ccc(O)cc2)NC(=O)[C@H](C(C)C)NC(=O)[C@H](CCCNC(=N)N)NC(=O)[C@@H](NC(=O)[C@H](CCCNC(=N)N)NC(=O)[C@H](Cc2c[nH]cn2)NC(=O)[C@H](CCCCN)NC(=O)[C@H](CCCCN)NC(=O)[C@H](CCCNC(=N)N)NC(=O)[C@@H](N)CCCCN)CSSC[C@@H](C(=O)O)NC(=O)[C@H](Cc2c[nH]c3ccccc23)NC(=O)[C@H](CCCNC(=N)N)NC(=O)[C@H](Cc2ccc(O)cc2)NC1=O [G17A] (H-KRKKHRCRVYNNGMPTAMYRWC-OH; disulfide 7-22)	4	–
CSCC[C@@H]1NC(=O)CNC(=O)[C@H](CC(N)=O)NC(=O)[C@H](CC(N)=O)NC(=O)[C@H](Cc2ccc(O)cc2)NC(=O)[C@H](C(C)C)NC(=O)[C@H](CCCNC(=N)N)NC(=O)[C@@H](NC(=O)[C@H](CCCNC(=N)N)NC(=O)[C@H](Cc2c[nH]cn2)NC(=O)[C@H](CCCCN)NC(=O)[C@H](CCCCN)NC(=O)[C@H](CCCNC(=N)N)NC(=O)[C@@H](N)CCCCN)CSSC[C@@H](C(=O)O)NC(=O)[C@H](Cc2c[nH]c3ccccc23)NC(=O)[C@H](CCCNC(=N)N)NC(=O)[C@H](Cc2ccc(O)cc2)NC(=O)[C@H](CCSC)NC(=O)CNC(=O)[C@H]([C@@H](C)O)NC(=O)[C@H](C)NC1=O [P15A] (H-KRKKHRCRVYNNGMATGMYRWC-OH; disulfide 7-22)	1	–
CSCC[C@@H]1NC(=O)CNC(=O)[C@H]([C@@H](C)O)NC(=O)[C@@H]2CCCN2C(=O)[C@H](CCSC)NC(=O)CNC(=O)[C@H](CC(N)=O)NC(=O)[C@H](CC(N)=O)NC(=O)[C@H](Cc2ccc(O)cc2)NC(=O)[C@H](C(C)C)NC(=O)[C@H](CCCNC(=N)N)NC(=O)[C@H](NC(=O)[C@H](CCCNC(=N)N)NC(=O)[C@H](Cc2c[nH]cn2)NC(=O)[C@H](CCCCN)NC(=O)[C@H](CCCCN)NC(=O)[C@H](CCCNC(=N)N)NC(=O)[C@@H](N)CCCCN)CSSC[C@@H](C(=O)O)NC(=O)[C@H](Cc2c[nH]c3ccccc23)NC(=O)[C@H](CCCNC(=N)N)NC(=O)[C@H](Cc2ccc(O)cc2)NC1=O [C7Cd] (H-KRKKHR[dC]RVYNNGMPTGMYRWC-OH; disulfide 7-22; N-terminus assumed)	16	–
CSCC[C@@H]1NC(=O)CNC(=O)[C@H]([C@@H](C)O)NC(=O)[C@@H]2CCCN2C(=O)[C@H](CCSC)NC(=O)CNC(=O)[C@H](CC(N)=O)NC(=O)[C@H](CC(N)=O)NC(=O)[C@H](Cc2ccc(O)cc2)NC(=O)[C@H](C(C)C)NC(=O)[C@H](CCCNC(=N)N)NC(=O)[C@@H](NC(=O)[C@H](CCCNC(=N)N)NC(=O)[C@H](Cc2c[nH]cn2)NC(=O)[C@H](CCCCN)NC(=O)[C@H](CCCCN)NC(=O)[C@H](CCCNC(=N)N)NC(=O)[C@@H](N)CCCCN)CSSC[C@@H](C(=O)O)NC(=O)[C@H](Cc2c[nH]c3ccccc23)NC(=O)[C@H](C)NC(=O)[C@H](Cc2ccc(O)cc2)NC1=O [R20A] (H-KRKKHRCRVYNNGMPTGMYAWC-OH; disulfide 7-22)	1	–
CSCC[C@@H]1NC(=O)CNC(=O)[C@H]([C@@H](C)O)NC(=O)[C@@H]2CCCN2C(=O)[C@H](CCSC)NC(=O)CNC(=O)[C@H](CC(N)=O)NC(=O)[C@H](CC(N)=O)NC(=O)[C@H](Cc2ccc(O)cc2)NC(=O)[C@H](C(C)C)NC(=O)[C@H](CCCNC(=N)N)NC(=O)[C@@H](N)CSSC[C@@H](C(=O)O)NC(=O)[C@H](Cc2c[nH]c3ccccc23)NC(=O)[C@H](CCCNC(=N)N)NC(=O)[C@H](Cc2ccc(O)cc2)NC1=O [C7-C22] (H-CRVYNNGMPTGMYRWC-OH; disulfide 1-16; N-terminus assumed)	> 1000	–
CSCC[C@@H]1NC(=O)CNC(=O)[C@H]([C@@H](C)O)NC(=O)[C@@H]2CCCN2C(=O)[C@H](CCSC)NC(=O)CNC(=O)[C@H](CC(N)=O)NC(=O)[C@H](CC(N)=O)NC(=O)[C@H](Cc2ccc(O)cc2)NC(=O)[C@H](C(C)C)NC(=O)[C@H](C)NC(=O)[C@@H](NC(=O)[C@H](CCCNC(=N)N)NC(=O)[C@H](Cc2c[nH]cn2)NC(=O)[C@H](CCCCN)NC(=O)[C@H](CCCCN)NC(=O)[C@H](CCCNC(=N)N)NC(=O)[C@@H](N)CCCCN)CSSC[C@@H](C(=O)O)NC(=O)[C@H](Cc2c[nH]c3ccccc23)NC(=O)[C@H](CCCNC(=N)N)NC(=O)[C@H](Cc2ccc(O)cc2)NC1=O [R8A] (H-KRKKHRCAVYNNGMPTGMYRWC-OH; disulfide 7-22)	1	–
KRKKHRSRVYNNGMPTGMYRWC-OH [C7S]	63	63
KRKKHRARVYNNGMPTGMYRWC-OH [C7A]	16	16
CSCC[C@@H]1NC(=O)CNC(=O)[C@H]([C@@H](C)O)NC(=O)[C@@H]2CCCN2C(=O)[C@H](CCSC)NC(=O)CNC(=O)[C@H](CC(N)=O)NC(=O)[C@H](CC(N)=O)NC(=O)[C@H](Cc2ccc(O)cc2)NC(=O)[C@H](C(C)C)NC(=O)[C@H](CCCNC(=N)N)NC(=O)[C@@H](NC(=O)[C@H](C)NC(=O)[C@H](Cc2c[nH]cn2)NC(=O)[C@H](CCCCN)NC(=O)[C@H](CCCCN)NC(=O)[C@H](CCCNC(=N)N)NC(=O)[C@@H](N)CCCCN)CSSC[C@@H](C(=O)O)NC(=O)[C@H](Cc2c[nH]c3ccccc23)NC(=O)[C@H](CCCNC(=N)N)NC(=O)[C@H](Cc2ccc(O)cc2)NC1=O [R6A] (H-KRKKHACRVYNNGMPTGMYRWC-OH; disulfide 7-22)	1	–
KRKKHRCRVYNNGMPTGMYRWS [C22S]	250	250
CSCC[C@@H]1NC(=O)CNC(=O)[C@H]([C@@H](C)O)NC(=O)[C@@H]2CCCN2C(=O)[C@H](CCSC)NC(=O)CNC(=O)[C@@H](CC(N)=O)NC(=O)[C@H](CC(N)=O)NC(=O)[C@H](Cc2ccc(O)cc2)NC(=O)[C@H](C(C)C)NC(=O)[C@H](CCCNC(=N)N)NC(=O)[C@@H](NC(=O)[C@H](CCCNC(=N)N)NC(=O)[C@H](Cc2c[nH]cn2)NC(=O)[C@H](CCCCN)NC(=O)[C@H](CCCCN)NC(=O)[C@H](CCCNC(=N)N)NC(=O)[C@@H](N)CCCCN)CSSC[C@@H](C(=O)O)NC(=O)[C@H](Cc2c[nH]c3ccccc23)NC(=O)[C@H](CCCNC(=N)N)NC(=O)[C@H](Cc2ccc(O)cc2)NC1=O [N12Nd] (H-KRKKHRCRVYN[dN]GMPTGMYRWC-OH; disulfide 7-22; N-terminus assumed)	4	–
CSCC[C@@H]1NC(=O)CNC(=O)[C@H]([C@@H](C)O)NC(=O)[C@@H]2CCCN2C(=O)[C@H](CCSC)NC(=O)CNC(=O)[C@H](CC(N)=O)NC(=O)[C@H](CC(N)=O)NC(=O)[C@H](Cc2ccc(O)cc2)NC(=O)[C@H](C(C)C)NC(=O)[C@H](CCCNC(=N)N)NC(=O)[C@@H](NC(=O)[C@H](CCCNC(=N)N)NC(=O)[C@H](Cc2c[nH]cn2)NC(=O)[C@H](CCCCN)NC(=O)[C@H](CCCCN)NC(=O)[C@H](CCCNC(=N)N)NC(=O)[C@@H](N)CCCCN)CSSC[C@@H](C(=O)O)NC(=O)[C@H](Cc2c[nH]c3ccccc23)NC(=O)[C@@H](CCCNC(=N)N)NC(=O)[C@H](Cc2ccc(O)cc2)NC1=O [R20Rd] (H-KRKKHRCRVYNNGMPTGMY[dR]WC-OH; disulfide 7-22; N-terminus assumed)	4	–
CSCC[C@@H]1NC(=O)CNC(=O)[C@H]([C@@H](C)O)NC(=O)[C@@H]2CCCN2C(=O)[C@H](CCSC)NC(=O)CNC(=O)[C@H](CC(N)=O)NC(=O)[C@H](CC(N)=O)NC(=O)[C@H](Cc2ccc(O)cc2)NC(=O)[C@@H](C(C)C)NC(=O)[C@H](CCCNC(=N)N)NC(=O)[C@@H](NC(=O)[C@H](CCCNC(=N)N)NC(=O)[C@H](Cc2c[nH]cn2)NC(=O)[C@H](CCCCN)NC(=O)[C@H](CCCCN)NC(=O)[C@H](CCCNC(=N)N)NC(=O)[C@@H](N)CCCCN)CSSC[C@@H](C(=O)O)NC(=O)[C@H](Cc2c[nH]c3ccccc23)NC(=O)[C@H](CCCNC(=N)N)NC(=O)[C@H](Cc2ccc(O)cc2)NC1=O [V9Vd] (H-KRKKHRCR[dV]YNNGMPTGMYRWC-OH; disulfide 7-22; N-terminus assumed)	63	63
